According to patent US9271978B2 (Zenith Epigenetics Corp., priority 2012, dated 2016):

Assays:
Design in all cases: key: Active: Compounds with an IC50 value less than 30 μM were deemed to be active.; Not Active: Compounds with an IC50 value less than 30 μM were deemed to be active
[1] = target: T1, second bromodomain of Brd2 (BRD2(2)) (Homo sapiens, UniProt P25440); experiment: Inhibition of tetra-acetylated histone H4 binding to Brd2 bromodomain 2 (TR-FRET); settings: tetra-acetylated histone H4 peptide, active = IC50 <30 μM
T1 construct: made in house; host or cells: E. coli BL21 (DE3)
T1 sequence (P25440 344-453 limits assumed): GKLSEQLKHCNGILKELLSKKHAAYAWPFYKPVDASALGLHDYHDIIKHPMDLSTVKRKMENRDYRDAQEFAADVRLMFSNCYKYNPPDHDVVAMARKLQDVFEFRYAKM
Method: Proteins were cloned and overexpressed with a N-terminal 6×His tag, then purified by nickel affinity followed by size exclusion chromatography. Briefly, E. coli BL21 (DE3) cells were transformed with a recombinant expression vector encoding N-terminally Nickel affinity tagged bromodomains from Brd2, Brd3, Brd4. Cell cultures were incubated at 37° C. with shaking to the appropriate density and induced overnight with IPTG. The supernatant of lysed cells was loaded onto Ni-IDA column for purification. Eluted protein is pooled, concentrated and further purified by size exclusion chromatography. Fractions representing monomeric protein were pooled, concentrated, aliquoted, and frozen at −80° C. for use in subsequent experiments.
Binding of tetra-acetylated histone H4 and BET bromodomains was confirmed by a Time Resolved Fluorescence Resonance Energy Transfer (TR-FRET) method. N-terminally His-tagged bromodomains (200 nM) and biotinylated tetra-acetylated histone H4 peptide (25-50 nM, Millipore) were incubated in the presence of Europium Cryptate-labeled streptavidin (Cisbio Cat. #610SAKLB) and XL665-labeled monoclonal anti-His antibody (Cisbio Cat. #61HISXLB) in a white 96 well microtiter plate (Greiner). For inhibition assays, serially diluted test compound was added to these reactions in a 0.2% final concentration of DMSO. Final buffer concentrations were 30 mM HEPES pH 7.4, 30 mM NaCl, 0.3 mM CHAPS, 20 mM phosphate pH 7.0, 320 mM KF, 0.08% BSA). After a 2-h incubation at room temperature, the fluorescence by FRET was measured at 665 and 620 nm by a SynergyH4 plate reader (Biotek). Illustrative results with the first bromodomain of Brd4 and the second bromodomain of Brd2 are shown below. The binding inhibitory activity was shown by a decrease in 665 nm fluorescence relative to 620 nm. IC50 values were determined from a dose response curve.

[2] = target: T2, Brd4 bromodomain 1 (BRD4(1)) (Homo sapiens, UniProt O60885); experiment: Inhibition of tetra-acetylated histone H4 binding to Brd4 bromodomain 1 (TR-FRET); settings: tetra-acetylated histone H4 peptide, active = IC50 <30 μM
T2 construct: Illustrative results with the first bromodomain of Brd4; made in house; host or cells: E. coli BL21 (DE3)
In short: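 IC50 values come from dose-response curves of the 665 nm to 620 nm TR-FRET signal decrease, measured after 2 h at room temperature. Reactions contained 200 nM E. coli-expressed His-tagged bromodomain, 25-50 nM biotinylated tetra-acetylated H4 peptide, Eu-streptavidin plus XL665 anti-His antibody, with 30 mM HEPES pH 7.4, 320 mM KF and 0.2% DMSO.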

hIL-6 mRNA = experiment: Inhibition of hIL-6 mRNA transcription in U937 cells; assay type: cell-based, human; settings: LPS stimulation, active = IC50 <30 μM
Method: In this example, hIL-6 mRNA in tissue culture cells was quantitated to measure the transcriptional inhibition of hIL-6 when treated with a compound of the present disclosure.
A human leukemic monocyte lymphoma cell line (U937) was plated (3.2×10^4 cells per well) in a 96-well plate in […] RPMI-1640 containing 10% FBS and penicillin/streptomycin, and differentiated into macrophages for 3 days in 60 ng/mL PMA ([…]) at 37° C. in 5% CO2 prior to the addition of the compound of interest. The cells were pretreated for 1 h with the test compound prior to stimulation with 1 ug/mL lipopolysaccharide from Escherichia coli. The cells were incubated at 37° C. for 3 h before the cells were harvested. At time of harvest, the spent media was removed from the cells and the cells were rinsed in […] PBS. Cell lysis solution (70 μL) was added the cells in each well and incubated for 5-10 min at room temperature, to allow for complete cell lysis and detachment. mRNA was then prepared using the “mRNA Catcher PLUS plate” (Invitrogen), according to the protocol supplied. After the last wash, as much wash buffer as possible was aspirated without allowing the wells to dry. Elution buffer (E3, 70 μL) was then added to each well. mRNA was then eluted by incubating the mRNA Catcher PLUS plate with Elution Buffer for 5 min at 68° C. and then immediately placing the plate on ice.
The eluted mRNA isolated was then used in a one-step quantitative real-time PCR reaction, using components of the Ultra Sense Kit together with Applied Biosystems primer-probe mixes. Real-time PCR data was analyzed, normalizing the Ct values for hIL-6 to an internal control, prior to determining the fold induction of each unknown sample, relative to the control.

[3] = system: human AML MV-4-11 (CRL-9591) cells; experiment: Inhibition of cell proliferation in MV4-11 cells; assay type: cell-based; settings: human AML MV-4-11 cells, 72 h; active = IC50 <30 μM
Method: MV4-11 cells: 96-well plates were seeded with 5×10^4 cells per well of exponentially growing human AML MV-4-11 (CRL-9591) cells and immediately treated with two-fold dilutions of test compounds, ranging from 30 μM to 0.2 μM. Triplicate wells were used for each concentration, as well as a media only and three DMSO control wells. The cells and compounds were incubated at 37° C., 5% CO2 for 72 h before adding 20 μL of the CellTiter Aqueous One Solution (Promega) to each well and incubating at 37° C., 5% CO2 for an additional 3-4 h. The absorbance was taken at 490 nm in a spectrophotometer and the percentage of proliferation relative to DMSO-treated cells was calculated after correction from the blank well. IC50 were calculated using the GraphPad Prism software.

c-myc = experiment: Inhibition of c-myc expression in MV4-11 cells (mRNA, real-time PCR); assay type: cell-based; settings: Human AML MV4-11 cells, 3 h incubation
Method: MV4-11 cells (2.5×10^4 cells) were plated in 96 well U-bottom plates with test compound or DMSO (0.1%), and incubated for 3 h at 37° C. Cells were then harvested by centrifugation, lysed, and mRNA was isolated using the mRNA catcher plus kit (Invitrogen). Reverse transcription of the mRNA and duplex amplification of the c-myc and cyclophilin cDNAs was performed using the RNA Ultrasense kit (Invitrogen) and a ViiA7 real-time PCR machine (Applied Biosystems). IC50 values were determined from a dose response curve.

| FRET activity (IC50 <30 μM) BRD2(2) [1] | FRET activity (IC50 <30 μM) BRD4(1) [2] | IL-6 activity (IC50 <30 μM) (hIL-6 mRNA) | Cell Proliferation activity (IC50 <30 μM) [3] | c-myc activity (IC50 <30 μM) (c-myc) | SMILES |
| --- | --- | --- | --- | --- | --- |
| Active | Active | Active | Active | – | Cc1noc(C)c1-c1ccc(=O)n(Cc2ccccc2Cl)n1 [Example 26, 2-(2-Chlorobenzyl)-6-(3,5-dimethylisoxazol-4-yl)pyridazin-3(2H)-one] |
| Active | Active | Active | – | – | Cc1cccc(Cn2cc(-c3c(C)noc3C)ccc2=O)n1 [Example 46, 5-(3,5-Dimethylisoxazol-4-yl)-1-((6-methylpyridin-2-yl)methyl)pyridin-2(1H)-one] |
| Active | Active | – | – | Active | CC(=O)Nc1cc(-c2c(C)noc2C)cn(Cc2ccccc2)c1=O [Example 71, N-(1-Benzyl-5-(3,5-dimethylisoxazol-4-yl)-2-oxo-1,2-dihydropyridin-3-yl)acetamide] |
| Active | Active | Active | – | Active | Cc1noc(C)c1-c1ccc(=O)n(Cc2ccsc2)c1 [Example 79, 5-(3,5-Dimethylisoxazol-4-yl)-1-(thiophen-3-ylmethyl)pyridin-2(1H)-one] |
| Active | Active | Not Active | Not Active | – | Cc1noc(C)c1-c1cc(C)c(=O)n(Cc2ccncc2)n1 [Example 87, 6-(3,5-Dimethylisoxazol-4-yl)-4-methyl-2-(pyridin-4-ylmethyl)pyridazin-3(2H)-one] |
| Active | Active | Not Active | – | – | CNC(=O)c1ccc(Cn2nc(-c3c(C)noc3C)ccc2=O)cc1 [Example 89, 4-((3-(3,5-Dimethylisoxazol-4-yl)-6-oxopyridazin-1(6H)-yl)methyl)-N-methylbenzamide] |
| Active | Active | Active | – | – | Cc1noc(C)c1-c1ccc(=O)n(Cc2cccc3cccnc23)n1 [Example 102, 6-(3,5-Dimethylisoxazol-4-yl)-2-(quinolin-8-ylmethyl)pyridazin-3(2H)-one] |
| Active | Active | Not Active | – | – | Cc1noc(C)c1-c1ccc(=O)n(C(C)c2ccccc2Cl)c1 (centres unmarked) [Example 103, 1-(1-(2-Chlorophenyl)ethyl)-5-(3,5-dimethylisoxazol-4-yl)pyridin-2(1H)-one] |
| Active | Active | Active | – | – | Cc1noc(C)c1-c1ccc(=O)n(Cc2ccncc2)c1 [Example 129, 5-(3,5-Dimethylisoxazol-4-yl)-1-(pyridin-4-ylmethyl)pyridin-2(1H)-one] |
| Active | Active | Active | – | – | COc1ccc(Cn2cc(-c3c(C)noc3C)ccc2=O)cc1 [Example 130, 5-(3,5-Dimethylisoxazol-4-yl)-1-(4-methoxybenzyl)pyridin-2(1H)-one] |
| Active | Active | Active | – | – | COc1ccc(Cn2cc(-c3c(C)noc3C)ccc2=O)cc1OC [Example 131, 1-(3,4-Dimethoxybenzyl)-5-(3,5-dimethylisoxazol-4-yl)pyridin-2(1H)-one] |
| Active | Active | – | – | Active | Cc1noc(C)c1-c1ccc(=O)n(Cc2ccccc2C#N)c1 [Example 135, 2-((5-(3,5-Dimethylisoxazol-4-yl)-2-oxopyridin-1(2H)-yl)methyl)benzonitrile] |
| Active | Active | Active | – | – | Cc1noc(C)c1-c1ccc(=O)n(Cc2ccc(F)cc2F)c1 [Example 138, 1-(2,4-Difluorobenzyl)-5-(3,5-dimethylisoxazol-4-yl)pyridin-2(1H)-one] |
| Active | Active | Active | – | – | Cc1noc(C)c1-c1ccc(=O)n(Cc2ccc(Cl)cc2F)c1 [Example 139, 1-(4-Chloro-2-fluorobenzyl)-5-(3,5-dimethylisoxazol-4-yl)pyridin-2(1H)-one] |
| Active | Active | Active | – | – | Cc1noc(C)c1-c1ccc(=O)n(Cc2ccc(Cl)c(F)c2)c1 [Example 141, 1-(4-Chloro-3-fluorobenzyl)-5-(3,5-dimethylisoxazol-4-yl)pyridin-2(1H)-one] |
| – | Active | – | Active | – | Cc1cncc(Nc2cc(-c3c(C)noc3C)cn(Cc3ccccc3)c2=O)c1 [Example 246, 1-benzyl-5-(3,5-dimethylisoxazol-4-yl)-3-((5-methylpyridin-3-yl)amino)pyridin-2(1H)-one] |
| – | Active | Active | Active | – | Cc1noc(C)c1-c1cc(N)c(=O)n(Cc2ccccc2)n1 [Example 250, 4-amino-2-benzyl-6-(3,5-dimethylisoxazol-4-yl)pyridazin-3(2H)-one] |
